Measurements from publication PMC6476926, “Dichloro-Phenyl-Benzotriazoles: A New Selective Class of Human Respiratory Syncytial Virus Entry Inhibitors” (Frontiers in Chemistry, 2019).
Entries after “also recorded” stand apart in the source; their conditions may differ.

Tests used:
[1] = Cytotoxicity, MTT method, BHK cells; conditions: Syrian hamster (Mesocricetus auratus)
[2] = Cytotoxicity, MTT method, MT-4 cells; conditions: human
RSV A2 [3] = assay: Syncytium reduction assay; conditions: Vero-76, added 8 h p.i. at 50, 10, 2 μM, assessed 72 h p.i.
Reo-1 = assay: microbe, parasite or virus in culture; format: cell-based, Reovirus type-1 (Reo-1); conditions: Reovirus sp., BHK, read-out: EC50 Reo-1
in vitro [4] = conditions: cattle (Bos taurus)
[5] = Cytotoxicity, MTT method, Vero-76 cells; conditions: African green monkey (Cercopithecus aethiops)
RSV strain B1 cp-52 = assay: microbe, parasite or virus in culture; format: cell-based; conditions: human respiratory syncytial virus, Vero 76, read-out: 50% inhibitory concentration RSV cp-52
RSV [6] = assay: microbe, parasite or virus in culture; format: cell-based, Human Respiratory Syncytial Virus (RSV) strain A2; conditions: human respiratory syncytial virus, Vero 76, read-out: EC50 RSV
BVDV = assay: microbe, parasite or virus in culture; format: cell-based; conditions: Bovine viral diarrhea virus isolates and strains, MDBK, read-out: EC50 BVDV
RSV [7] = assay: Cell pretreatment assay; format: cell-based, Human Respiratory Syncytial Virus (RSV); conditions: Vero-76 pretreated with 20 μM, 2 h at 4°C; titer 3 days post infection
Description: After removal of the compound and two gentle washes, cells were infected with RSV. After virus adsorption to cells, the inoculum was removed and the cells were then overlaid with medium, incubated for 3 days at 37°C, and then virus titers were determined by plaque assay.

RSV [8] = assay: Time of addition assay; format: cell-based, Human Respiratory Syncytial Virus (RSV); conditions: 20 μM
Description: After each incubation period, the monolayers were washed two times with maintenance medium and incubated with fresh medium until 10 h post-infection. Then, after 36 h the development of cytopathic effect (CPE) was evaluated microscopically and each sample was collected, centrifuged and frozen at −80°C. The viral titer was determined by plaque assay (or ELISA).

RSV virions = assay: Virucidal activity assay; format: cell-based, Human Respiratory Syncytial Virus (RSV); conditions: 20 μM, 4°C or 37°C, 1 h
Description: The mixture without test sample was used as the control. At the end of incubation period, samples were serially diluted in media and titers were determined on Vero-76 cells at high dilutions, at which the compound was not active. Virus titers were determined by plaque assay in Vero-76 cells.

YFV = assay: microbe, parasite or virus in culture; format: cell-based; conditions: Yellow fever virus, BHK, read-out: EC50 YFV
RSV A2 [9] = assay: Immunofluorescence attachment assay; format: cell-based, Human Respiratory Syncytial Virus (RSV); conditions: 4°C, Vero-76; 20 μM 10d, 6 μg/mL dextran sulfate, 5 μM 6-azauridine
Description: Compounds' inhibitory effects on virus-cell binding event was measured by immunofluorescence performed according to the method described previously with some modifications (Maric et al., [2011]). […] After this incubation period, the monolayers were washed three times in cold PBS in order to remove unbound viral particles and then were fixed in paraformaldehyde 4%. The presence of bound virus was detected by indirect immunofluorescence. […] Abcam, Cambridge, United Kingdom). Cells were then washed three times in PBS-Tween-100 and incubated with a 1:500 dilution of an Alexa Fluor 488-labeled anti-mouse secondary antibody (Molecular Probes, Eugene, Oreg.). After a series of washes in PBS-Tween-100, cells were mounted with Vectashield (Vector Laboratories, Burlingame, CA) containing 4′,6-diamidino-2-phenylindole (DAPI) and images of each well were captured with the ZOE Fluorescent Cell Imager (Biorad).

RSV [10] = assay: Antigen reduction assay (ELISA) in RSV-infected Vero-76 cells
CV-B5 = assay: microbe, parasite or virus in culture; format: cell-based, Human Enterovirus B [coxsackie type B5 (CV-B5)]; conditions: Enterovirus B, CVB5, Vero 76, read-out: EC50 CV-B5
[11] = Cytotoxicity in continuous cell lines (summary statement); format: cell-based; conditions: continuous cell lines from different organs and species (Table 1, Table S2); read-out: CC50 in most continuous cell lines
Description: Exponentially growing MT-4 cells were seeded at an initial density of 4x10^5 cells/mL in 96-well plates containing RPMI-1640 medium, supplemented with 10% fetal bovine serum (FBS), 100 units/mL penicillin G and 100 μg/mL streptomycin. MDBK, Hep-2 and BHK cells were seeded at an initial density of 6 × 10^5, 5 × 10^5, and 1 × 10^6 cells/mL, respectively, in 96-well plates containing Minimum Essential Medium with Earle's salts (MEM-E), L-glutamine, 1 mM sodium pyruvate and 25 mg/L kanamycin, supplemented with 10% horse serum (MDBK) or 10% fetal bovine serum (FBS) (BHK; Hep-2). Vero-76 cells were seeded at an initial density of 5 × 10^5 cells/mL in 96-well plates containing in Dulbecco's Modified Eagle Medium (D-MEM) with L-glutamine and 25 mg/L kanamycin, supplemented with 10% FBS. Cell cultures were then incubated at 37°C in a humidified, 5% CO2 atmosphere, in the absence or presence of serial dilutions of test compounds. The test medium used for cytotoxic and antiviral assay contained 1% of the appropriate serum. Cell viability was determined after 72, 96, or 120 h at 37°C by the MTT method for MT-4, MDBK, Hep-2, BHK and Vero-76 cells (Budge et al., [2004]).

Sb-1, VSV, VV, HSV-1 = assay: organism not typed; format: cell-based; conditions: Vero 76, read-out: EC50 Sb-1, VSV, VV, HSV-1
HIV-1IIIB = assay: microbe, parasite or virus in culture; format: cell-based, Human Immunodeficiency Virus type-1 (HIV-1); conditions: Human immunodeficiency virus 1, MT4, read-out: EC50 HIV-1IIIB
in vitro [12] = conditions: African green monkey (Cercopithecus aethiops)
RSV F-protein = conditions: read-out: experimental IC50; ref Battles et al., [2016]; cited from earlier work

## O=C(Nc1ccc(-n2nc3cc(Cl)c(Cl)cc3n2)cc1)NC1CCCCC1 [10d, 1-[4-(5,6-dichloro-2H-benzo[d][1,2,3]triazol-2-yl)phenyl]-3-cyclohexylurea]
[1]
  CC50: 71 µM
[2]
  CC50: > 100 µM
RSV A2 [3]
  syncytium formation: the number and the size of syncytia decreased in a dose-dependent manner; also recorded: both size and number of syncytia did not increase; also recorded: effective in reducing both syncytia area and number at a concentration of 50 μM; also recorded: dose-dependent reduction of syncytia area and number
Reo-1
  EC50: > 71 µM
In vitro [4]
  CC50: > 100 µM
[5]
  CC50 at 5 days: 90 µM
RSV strain B1 cp-52
  IC50: 7 ± 1 µM
RSV [6]
  EC50: 2 µM
BVDV
  EC50: > 100 µM
RSV [7]
  inhibition of RSV infection after cell pretreatment: failed to inhibit RSV infection; also recorded: failed to prevent viral infection
RSV [8]; m.o.i. 1, 4–10 h after infection
  inhibition of RSV, addition at later times: failed to exhibit significant antiviral activity
RSV [8]; m.o.i. 1, during the 2 h of infection (t = 0) and immediately after
  inhibition of RSV, addition in early phases: most efficient inhibition was observed in early phases of infection
RSV virions
  virucidal effect: negligible
YFV
  EC50: > 71 µM
RSV A2 [9]
  inhibition of viral attachment: does not inhibit viral attachment; also recorded: not able to block viral binding to cells
RSV [10]; ELISA, at 20 μM
  reduction of viral antigen: 80%
RSV [10]; human respiratory syncytial virus, Vero 76, read-out: EC50 viral antigen reduction
  EC50: 5 µM
CV-B5
  EC50: > 90 µM
[11]
  CC50: < 70 µM
Sb-1, VSV, VV, HSV-1
  EC50: > 90 µM
HIV-1IIIB
  EC50: > 100 µM
other
  melting point: > 300 °C

## NC(=O)c1ncn([C@@H]2O[C@H](CO)[C@@H](O)[C@H]2O)n1 [ribavirin, reference compound]
RSV [6]
  EC50: 7 µM
In vitro [12]
  CC50 at 5 days: > 100 µM

## Cc1ccc(CCCO)c(NCc2ccc3nc(NCCCN4CCOCC4)n(Cc4nc(C)ccc4O)c3c2)c1 [TMC353121]
RSV F-protein
  IC50: 0.0087 µM
